Data: patent publication US12624017B2, “Salt form of isoquinolinone type compound as rock inhibitor and preparation method therefor” (GUANGZHOU OCUSUN OPHTHALMIC BIOTECHNOLOGY CO., LTD., priority 2020, dated 2026)

System: New Zealand rabbits with normal intraocular pressure
Assay: Intraocular pressure reduction, normal intraocular pressure, eye drops in both eyes for 14 days (Operation I)
Format: in vivo, New Zealand white rabbits
Conditions: for Change in intraocular pressure: vs negative control
Description: An intraocular pressure reduction effect and potential ocular toxicity of the compound of formula (I) were inspected with rabbits with normal intraocular pressure by repeated administration of eye drops for 14 days.
Male New Zealand white rabbits, aged 97 to 127 days, weighted 2.6-3.5 kg, purchased from Pizhou Oriental Breeding Co., Ltd.
The Male New Zealand white rabbits were randomly divided into 7 groups according to body weights, 6 rabbits/group. The animals in Groups 1 to 7 were administrated dropwise with a solvent/control/test article in both eyes in an administration volume of 50 μL/eye, once a day for 14 consecutive days, and the day of first administration was recorded as Day 1. The intraocular pressures of the animals were measured before administration, as well as at 1, 2, 4, 6, 8 and 10 h after administration, respectively. On Days 2 to 14, the intraocular pressures of animals in the K-115 administration group were measured at 1 h after daily administration; and intraocular pressures of the animals in the remaining groups were measured at 4 h after daily administration.

[1] = 4 mg/mL once a day, Day 2, 1 h after daily administration
[2] = 4 mg/mL once a day, Day 3, 1 h after daily administration
[3] = 4 mg/mL once a day, Day 4, 1 h after daily administration
[4] = 4 mg/mL once a day, Day 5, 1 h after daily administration
[5] = 4 mg/mL once a day, Day 6, 1 h after daily administration
[6] = 4 mg/mL once a day, Day 7, 1 h after daily administration
[7] = 4 mg/mL once a day, Day 8, 1 h after daily administration
[8] = 4 mg/mL once a day, Day 9, 1 h after daily administration
[9] = 4 mg/mL once a day, Day 10, 1 h after daily administration
[10] = 4 mg/mL once a day, Day 11, 1 h after daily administration
[11] = 4 mg/mL once a day, Day 12, 1 h after daily administration
[12] = 4 mg/mL once a day, Day 13, 1 h after daily administration
[13] = 4 mg/mL once a day, Day 14, 1 h after daily administration
[14] = 4 mg/mL, Day 1, 1 h after administration
[15] = 4 mg/mL, Day 1, 2 h after administration
[16] = 4 mg/mL, Day 1, 4 h after administration
[17] = 4 mg/mL, Day 1, 6 h after administration
[18] = 4 mg/mL, Day 1, 8 h after administration
[19] = 4 mg/mL, Day 1, 10 h after administration
[20] = 4 mg/mL, Day 1, before administration

C[C@H]1CNCCCN1S(=O)(=O)c1cccc2cncc(F)c12 [K-115, reference compound]
Average intraocular pressure in both eyes [1]: 6.83 mmHg
Change in intraocular pressure [1]: 4.25 mmHg
Average intraocular pressure in both eyes [2]: 6.81 mmHg
Change in intraocular pressure [2]: 3.58 mmHg
Average intraocular pressure in both eyes [3]: 6.92 mmHg
Change in intraocular pressure [3]: 3.69 mmHg
Average intraocular pressure in both eyes [4]: 6.67 mmHg
Change in intraocular pressure [4]: 4.3 mmHg
Average intraocular pressure in both eyes [5]: 6.75 mmHg
Change in intraocular pressure [5]: 2.56 mmHg
Average intraocular pressure in both eyes [6]: 7.39 mmHg
Change in intraocular pressure [6]: 2.67 mmHg
Average intraocular pressure in both eyes [7]: 7.53 mmHg
Change in intraocular pressure [7]: 3.78 mmHg
Average intraocular pressure in both eyes [8]: 7.78 mmHg
Change in intraocular pressure [8]: 1.66 mmHg
Average intraocular pressure in both eyes [9]: 7.94 mmHg
Change in intraocular pressure [9]: 1.81 mmHg
Average intraocular pressure in both eyes [10]: 7.94 mmHg
Change in intraocular pressure [10]: 1.75 mmHg
Average intraocular pressure in both eyes [11]: 7.89 mmHg
Change in intraocular pressure [11]: 1.64 mmHg
Average intraocular pressure in both eyes [12]: 8.25 mmHg
Change in intraocular pressure [12]: 3.14 mmHg
Average intraocular pressure in both eyes [13]: 8.50 mmHg
Change in intraocular pressure [13]: 2.47 mmHg
Average intraocular pressure in both eyes [14]: 7.72 mmHg
Change in intraocular pressure [14]: 2.59 mmHg
Average intraocular pressure in both eyes [15]: 9.00 mmHg
Change in intraocular pressure [15]: 1.97 mmHg
Average intraocular pressure in both eyes [16]: 9.67 mmHg
Change in intraocular pressure [16]: 1.64 mmHg
Average intraocular pressure in both eyes [17]: 10.56 mmHg
Change in intraocular pressure [17]: 1.38 mmHg
Average intraocular pressure in both eyes [18]: 10.28 mmHg
Change in intraocular pressure [18]: 2.69 mmHg
Average intraocular pressure in both eyes [19]: 12.81 mmHg
Change in intraocular pressure [19]: 1.61 mmHg
Average intraocular pressure in both eyes [20]: 10.83 mmHg
Change in intraocular pressure [20]: −0.94 mmHg
